Measurements as given in US20150190461A1, “DOSING INSTRUCTIONS FOR ENDOTOXIN-BINDING LIPOPEPTIDES” (priority 2012, published 2015).

Legend:
[1] = human, in vivo; cited from earlier work
blood cells = assay: Cytokine batch (batch test II): cytokine release by blood cells in LPS-spiked plasma; format: cell-based; conditions: PMB 250, 500, 1000 ng/ml; plasma spiked with LPS (E. coli); 4 hours of incubation
Procedure: Also to be studied is to what extent this endotoxin elimination has the consequence of inhibiting the release of cytokines (batch test II).
A blood donation was taken in 9 blood-donation tubes (9 ml each) and spiked with 5 IU heparin. The plasma was centrifuges, and the cell pellet as incubated on the rolling mixer. The plasma was spiked with LPS and used for batch test I: […]

For colistin, the serum half-life [1] is listed as 6 to 7.4 h.
In the case of polymyxin B [PMB], the “inhibition of cytokine release (TNF-alpha, IL-1beta, IL-6, IL-8) by the blood cells” value (blood cells) is reported as “strong inhibition” and the “inhibition of the key mediator TNF-alpha” value (blood cells) is reported as “especially pronounced”.
